Measured values: article PMC12951562, “SH2scan: Mapping SH2 Domain-Ligand Binding Selectivity for Inhibitors and Degraders” (Journal of Medicinal Chemistry, 2026)
Non-standard residues stand in square brackets, D forms with d. Residues, ends and D or L forms follow the SMILES beside them. pY = N[C@@H](Cc1ccc(OP(=O)(O)O)cc1)C(=O)O

Key:
SOCS2 = biological target: SOCS2; set-up: method as in Ramachandran et al., Nature Communications, 2023; settings: ITC; ref Ramachandran et al., Nature Communications, 2023; cited from earlier work
STAT4 = biological target: STAT4; set-up: method as in earlier work; settings: FP; ref Elumalai et al., Angewandte Chemie International Edition, 2015; cited from earlier work
STAT5B [1] = biological target: STAT5B; set-up: method as in earlier work; settings: FP; ref Elumalai et al., Angewandte Chemie International Edition, 2015; cited from earlier work
ZAP70(SH2dom1.dom2.) = biological target: T1, ZAP70(SH2dom1.dom2.) (Homo sapiens, UniProt P43403); settings: primary screen, 10 μM
T1 sequence (P43403 1-254 limits assumed): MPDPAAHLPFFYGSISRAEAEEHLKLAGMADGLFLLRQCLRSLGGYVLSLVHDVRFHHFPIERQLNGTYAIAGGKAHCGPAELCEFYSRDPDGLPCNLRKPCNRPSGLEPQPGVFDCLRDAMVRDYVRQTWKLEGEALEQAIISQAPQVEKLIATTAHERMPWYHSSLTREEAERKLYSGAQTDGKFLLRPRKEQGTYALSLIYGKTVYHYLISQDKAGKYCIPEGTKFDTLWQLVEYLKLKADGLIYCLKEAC

STAT5A = biological target: STAT5A; set-up: method as in Bai et al., Cancer Cell, 2019; settings: FP and BLI; ref Bai et al., Cancer Cell, 2019; cited from earlier work
STAT5B [2] = biological target: STAT5B; set-up: method as in Bai et al., Cancer Cell, 2019; settings: FP and BLI; ref Bai et al., Cancer Cell, 2019; cited from earlier work
PTPN11 (SH2dom.N-term.) = system: PTPN11 (SH2dom.N-term.); set-up: method as in Gay et al., International Journal of Cancer, 1999; settings: ELISA; ref Gay et al., International Journal of Cancer, 1999; cited from earlier work
GRB2 = system: GRB2; set-up: method as in Gay et al., International Journal of Cancer, 1999; settings: ELISA; ref Gay et al., International Journal of Cancer, 1999; cited from earlier work
PTPN11 (SH2dom.C-term.) = system: PTPN11 (SH2dom.C-term.); set-up: method as in Gay et al., International Journal of Cancer, 1999; settings: ELISA; ref Gay et al., International Journal of Cancer, 1999; cited from earlier work
PIK3R1 (SH2dom.N-term.) = system: PIK3R1 (SH2dom.N-term.); set-up: method as in Gay et al., International Journal of Cancer, 1999; settings: ELISA; ref Gay et al., International Journal of Cancer, 1999; cited from earlier work
FYN = system: FYN; set-up: method as in Gay et al., International Journal of Cancer, 1999; settings: ELISA; ref Gay et al., International Journal of Cancer, 1999; cited from earlier work

For O=C(CCl)Nc1cccc(CNC(=O)[C@H](Cc2ccc(OP(=O)(O)O)cc2)NC(=O)Cc2ccc(F)cc2)c1 [MN551], the Kd (SOCS2) is listed as 2.18 µM.

In the case of O=C(COc1ccc2cc(C(=O)Nc3ccccc3)ccc2c1)NCc1ccc(OP(=O)(O)O)c(OP(=O)(O)O)c1 [Stafib-1], the Ki (STAT4) is listed as 3.29 µM and the Ki (STAT5B [1]) is listed as 0.044 µM.

For CC[C@H](C)[C@H](NC(=O)[C@H](CCC(=O)O)NC(=O)[C@H](CCC(=O)O)NC(=O)[C@H](Cc1ccc(OP(=O)(O)O)cc1)NC(C)=O)C(=O)N[C@@H](CCC(=O)O)C(N)=O [Ac-pYEEIE-NH2] (Ac-[pY]EEIE-NH2), the “percent of DMSO vehicle control” value (ZAP70(SH2dom1.dom2.)) was 134.0%.

In the case of NC(=O)CC[C@H](NC(=O)[C@@H]1CC[C@@H]2CCN(C(=O)CCCCCC#Cc3cccc4c3CN(C3CCC(=O)NC3=O)C4=O)C[C@H](NC(=O)c3cc4cc(C(F)(F)P(=O)(O)O)ccc4[nH]3)C(=O)N21)C(=O)NC(c1ccccc1)c1ccccc1 (some centres unmarked) [SD-36], the Kd (STAT5A) is given as 6.18 µM and the Kd (STAT5B [2]) is given as 11.7 µM.

For CC(=O)N[C@@H](Cc1ccc(CP(=O)(O)O)cc1)C(=O)NC1(C(=O)N[C@@H](CC(N)=O)C(=O)NCCCc2c(O)ccc3ccccc23)CCCCC1 [CGP78850], the IC50 (PTPN11 (SH2dom.N-term.)) is given as over 50 µM, the IC50 (GRB2) is given as 0.04 µM and the IC50 (PTPN11 (SH2dom.C-term.)) is given as over 50 µM. The IC50 (PIK3R1 (SH2dom.N-term.)) was over 50 µM and the IC50 (FYN) was over 50 µM.
